Assay results reported in ChEMBL document CHEMBL5042478, “Design, Synthesis, and Evaluation of VHL-Based EZH2 Degraders to Enhance Therapeutic Activity against Lymphoma” (J Med Chem, 2021).
Active and inactive are the calls of the source. No cut-off for these calls is given here.

Assays:
SU-DHL-6 [1] = experiment: Induction of cell cycle arrest in human SU-DHL-6 cells assessed as accumulation of cells at G0/G1 phase at 1 to 5 uM after 24 hrs by flow cytometry; assay type: functional, cell-based; conditions: dose 1-5 µM
SU-DHL-6 [2] = experiment: Antiproliferative activity against human SU-DHL-6 cells assessed as viable cells at 10 uM by cello meter auto T4 cell counter relative to control; assay type: functional; conditions: read-out: Activity
SU-DHL-2 [3] = experiment: Antiproliferative activity against EZH2 knockdown human SUDHL2 cells assessed as cell growth inhibition measured upto 6 days; assay type: functional, cell-based; conditions: time day <=6
SU-DHL-6 [4] = experiment: Antitumor activity against human SU-DHL-6 cells xenografted in nude Balb/c mouse assessed as reduction in H3K27me3 level in tumor tissue at 42.5 mg/kg, ip administered for 6 times weekly for 3 weeks by Western blot analysis; assay type: functional, organism-based
SU-DHL-2 [5] = experiment: Antiproliferative activity against human SUDHL2 cells assessed as viable cells at 10 uM by cello meter auto T4 cell counter relative to control; assay type: functional; conditions: read-out: Activity
SUD4 [6] = experiment: Antiproliferative activity against human SU-DHL-4 cells assessed as viable cells at 10 uM by cello meter auto T4 cell counter relative to control; assay type: functional; conditions: read-out: Activity
[7] = Toxicity in nude BALB/c mouse xenografted with SU-DHL-6 cells assessed as weight loss at 42.5 mg/kg, ip administered for 6 times weekly for 3 weeks; assay type: organism-based; conditions: in vivo, 504 h
SU-DHL-6 [8] = experiment: Induction of apoptosis in human SU-DHL-6 cells at 1 to 5 uM incubated for 48 hrs by Annexin V/propidium iodide staining based flow cytometry; assay type: functional, cell-based; conditions: dose 1-5 µM
SU-DHL-6 [9] = experiment: Induction of cell cycle arrest in human SU-DHL-6 cells assessed as accumulation of cells at sub G1 phase at 1 to 5 uM after 24 hrs by flow cytometry; assay type: functional, cell-based; conditions: dose 1-5 µM
DLBCL [10] = experiment: Antitumor activity against patient derived human DLBCL cells assessed as reduction in cell viability at 1 to 7 uM incubated for 48 hrs by adenosine triphosphate assay; assay type: functional, cell-based; conditions: dose 1-7 µM
SU-DHL-6 [11] = experiment: Antiproliferative activity against human SU-DHL-6 cells assessed as reduction in cell viability at 0.01 to 10 uM measured after 5 days by MTS assay; assay type: functional, cell-based; conditions: dose 0.01-10 µM, time 5.0 day
SU-DHL-6 [12] = experiment: Antitumor activity against human SU-DHL-6 cells xenografted in Balb/c mouse assessed as inhibition of tumor growth at 80 mg/kg, ip administered for 6 times weekly for 3 weeks by Ki67 staining based immunohistochemistry; assay type: functional, organism-based
SU-DHL-6 [13] = experiment: Induction of cell cycle arrest in human SU-DHL-6 cells after 24 hrs by flow cytometry; assay type: functional, cell-based; conditions: dose 1-5 µM
[14] = molecular target: T1, von Hippel-Lindau disease tumor suppressor/Histone-lysine N-methyltransferase EZH2 (Homo sapiens) (UniProt Q15910+P40337); experiment: Protac activity at VHL/EZH2 in human 22Rv1 cells assessed as reduction in H3K27me3 level at 1 uM incubated for 48 hrs by Western blot analysis; assay type: cell-based
T1 sequence (P40337 whole entry, looked up): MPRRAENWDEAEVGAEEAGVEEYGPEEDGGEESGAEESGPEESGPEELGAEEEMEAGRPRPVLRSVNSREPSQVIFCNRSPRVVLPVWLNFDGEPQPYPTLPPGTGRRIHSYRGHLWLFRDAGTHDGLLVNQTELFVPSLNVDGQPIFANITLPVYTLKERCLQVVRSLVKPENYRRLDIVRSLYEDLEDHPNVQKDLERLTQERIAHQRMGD
T1 sequence (Q15910 whole entry, looked up): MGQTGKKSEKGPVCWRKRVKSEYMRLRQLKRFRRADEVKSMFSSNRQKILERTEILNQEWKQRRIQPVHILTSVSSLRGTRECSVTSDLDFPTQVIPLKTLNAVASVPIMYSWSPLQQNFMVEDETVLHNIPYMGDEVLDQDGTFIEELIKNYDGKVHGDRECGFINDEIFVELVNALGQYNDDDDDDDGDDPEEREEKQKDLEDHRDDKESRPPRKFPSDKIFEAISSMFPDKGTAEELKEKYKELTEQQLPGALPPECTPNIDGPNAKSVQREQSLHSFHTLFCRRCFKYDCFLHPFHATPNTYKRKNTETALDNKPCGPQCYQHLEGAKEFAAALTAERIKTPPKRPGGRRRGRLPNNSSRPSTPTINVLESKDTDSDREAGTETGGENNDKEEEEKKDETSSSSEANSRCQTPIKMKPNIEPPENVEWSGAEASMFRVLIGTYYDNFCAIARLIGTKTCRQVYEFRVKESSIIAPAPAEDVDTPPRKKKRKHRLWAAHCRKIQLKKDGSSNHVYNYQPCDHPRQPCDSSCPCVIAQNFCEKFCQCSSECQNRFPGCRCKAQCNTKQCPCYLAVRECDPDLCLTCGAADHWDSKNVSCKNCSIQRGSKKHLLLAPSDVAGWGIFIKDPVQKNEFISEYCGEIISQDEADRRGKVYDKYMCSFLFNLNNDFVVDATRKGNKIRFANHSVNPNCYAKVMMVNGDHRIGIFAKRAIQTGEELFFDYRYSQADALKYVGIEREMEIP

SUD4 [15] = experiment: Antiproliferative activity against human SU-DHL-4 cells assessed as reduction in cell viability at 0.01 to 10 uM measured after 5 days by MTS assay; assay type: functional, cell-based; conditions: dose 0.01-10 µM, time 5.0 day
SU-DHL-6 [16] = experiment: Induction of apoptosis in human SU-DHL-6 cells assessed as increase in cleaved capase-3 level at 1 to 5 uM incubated for 48 hrs by Western blot analysis; assay type: functional, cell-based; conditions: dose 1-5 µM
[17] = molecular target: von Hippel-Lindau disease tumor suppressor/Histone-lysine N-methyltransferase EZH1 (Homo sapiens) (UniProt Q92800+P40337); experiment: Protac activity at VHL/EZH1 in human 22Rv1 cells assessed as EZH1 protein abundance at 1 to 6 uM after 24 hrs by Western blot analysis; assay type: cell-based; conditions: dose 1-6 µM
Chain of von Hippel-Lindau disease tumor suppressor/Histone-lysine N-methyltransferase EZH1 (Homo sapiens) (P40337 whole entry, looked up): as the sequence (P40337 whole entry, looked up) above
Chain of von Hippel-Lindau disease tumor suppressor/Histone-lysine N-methyltransferase EZH1 (Homo sapiens) (Q92800 whole entry, looked up): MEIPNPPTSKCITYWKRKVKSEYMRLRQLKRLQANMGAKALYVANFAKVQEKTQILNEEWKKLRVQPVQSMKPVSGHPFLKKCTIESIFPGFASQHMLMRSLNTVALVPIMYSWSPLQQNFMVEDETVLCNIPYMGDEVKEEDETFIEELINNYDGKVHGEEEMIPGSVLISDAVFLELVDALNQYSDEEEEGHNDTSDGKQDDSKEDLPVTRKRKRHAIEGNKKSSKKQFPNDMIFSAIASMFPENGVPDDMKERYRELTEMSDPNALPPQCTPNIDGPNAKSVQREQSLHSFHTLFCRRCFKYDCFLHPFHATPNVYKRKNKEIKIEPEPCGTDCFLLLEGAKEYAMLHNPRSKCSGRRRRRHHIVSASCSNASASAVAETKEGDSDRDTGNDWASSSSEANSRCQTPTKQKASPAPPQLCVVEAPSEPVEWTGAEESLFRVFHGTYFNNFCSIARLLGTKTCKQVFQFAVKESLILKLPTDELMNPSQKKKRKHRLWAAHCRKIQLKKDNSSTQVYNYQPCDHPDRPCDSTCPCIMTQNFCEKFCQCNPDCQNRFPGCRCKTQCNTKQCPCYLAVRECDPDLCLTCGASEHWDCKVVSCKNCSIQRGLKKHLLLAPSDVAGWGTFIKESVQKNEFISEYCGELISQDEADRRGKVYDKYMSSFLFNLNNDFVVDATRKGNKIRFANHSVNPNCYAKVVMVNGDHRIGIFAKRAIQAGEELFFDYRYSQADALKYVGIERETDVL

SU-DHL-6 [18] = experiment: Antitumor activity against human SU-DHL-6 cells xenografted in nude Balb/c mouse assessed as reduction in EZH2 level in tumor tissue at 80 mg/kg, ip administered for 6 times weekly for 3 weeks by Western blot analysis; assay type: functional, organism-based
[19] = molecular target: T1, von Hippel-Lindau disease tumor suppressor/Histone-lysine N-methyltransferase EZH2 (Homo sapiens); experiment: Protac activity at VHL/EZH2 in human 22Rv1 cells assessed as reduction in H3K27me3 level after 24 hrs by Western blot analysis; assay type: cell-based; conditions: dose 1-6 µM
SU-DHL-6 [20] = experiment: Induction of cell cycle arrest in human SU-DHL-6 cells assessed as accumulation of cells at sub G1 phase after 24 hrs by flow cytometry; assay type: functional, cell-based; conditions: dose 1-5 µM
DLBCL [21] = experiment: Antitumor activity against patient derived human DLBCL cells assessed as increase in capase-3 activity at 1 to 7 uM incubated for 48 hrs by western blot analysis; assay type: functional, cell-based; conditions: dose 1-7 µM
SU-DHL-6 [22] = experiment: Antitumor activity against human SU-DHL-6 cells xenografted in nude Balb/c mouse assessed as reduction in tumor volume at 42.5 mg/kg, ip administered for 6 times weekly for 3 weeks; assay type: functional, organism-based
SU-DHL-6 [23] = experiment: Antitumor activity against human SU-DHL-6 cells xenografted in nude Balb/c mouse assessed as reduction in tumor volume at 80 mg/kg, ip administered for 6 times weekly for 3 weeks; assay type: functional, organism-based
[24] = Toxicity in nude BALB/c mouse xenografted with SU-DHL-6 cells assessed as weight loss at 80 mg/kg, ip administered for 6 times weekly for 3 weeks; assay type: organism-based; conditions: in vivo, 504 h
[25] = molecular target: T1, von Hippel-Lindau disease tumor suppressor/Histone-lysine N-methyltransferase EZH2 (Homo sapiens); experiment: Protac activity at VHL/EZH2 in human 22Rv1 cells assessed as reduction in EZH2 level at 1 uM incubated for 48 hrs by Western blot analysis; assay type: cell-based
SU-DHL-6 [26] = experiment: Induction of apoptosis in human SU-DHL-6 cells assessed as increase in cleaved PARP level at 1 to 5 uM incubated for 48 hrs by Western blot analysis; assay type: functional, cell-based; conditions: dose 1-5 µM
DLBCL [27] = experiment: Antitumor activity against patient derived human DLBCL cells assessed as EZH2 degradation for 24 hrs by western blot analysis; assay type: functional, cell-based; conditions: dose 0.1-5 µM
[28] = molecular target: T1, von Hippel-Lindau disease tumor suppressor/Histone-lysine N-methyltransferase EZH2 (Homo sapiens); experiment: Protac activity at VHL/EZH2 in human 22Rv1 cells assessed as EZH2 protein abundance after 24 hrs by Western blot analysis; assay type: cell-based; conditions: dose 1-6 µM
SU-DHL-2 [29] = experiment: Antiproliferative activity against human SUDHL2 cells assessed as reduction in cell viability at 0.01 to 10 uM measured after 5 days by MTS assay; assay type: functional, cell-based; conditions: dose 0.01-10 µM, time 5.0 day
[30] = molecular target: T1, von Hippel-Lindau disease tumor suppressor/Histone-lysine N-methyltransferase EZH2 (Homo sapiens); experiment: Protac activity at VHL/EZH2 in human 22Rv1 cells assessed as increase in EZH2 ubiquitination at 2 uM for 12 hrs by immunoprecipitation based Western blot analysis; assay type: cell-based
SU-DHL-6 [31] = experiment: Antitumor activity against human SU-DHL-6 cells xenografted in nude Balb/c mouse assessed as reduction in H3K27me3 level in tumor tissue at 80 mg/kg, ip administered for 6 times weekly for 3 weeks by Western blot analysis; assay type: functional, organism-based
DLBCL [32] = experiment: Antitumor activity against patient derived human DLBCL cells assessed as increase in capase-6 activity at 1 to 7 uM incubated for 48 hrs by western blot analysis; assay type: functional, cell-based; conditions: dose 1-7 µM
SU-DHL-6 [33] = experiment: Antitumor activity against human SU-DHL-6 cells xenografted in Balb/c mouse assessed as […] in tumor tissue at 80 mg/kg, ip administered for 6 times weekly for 3 weeks by Ki67 staining based immunohistochemistry; assay type: functional, organism-based
[34] = molecular target: T2, von Hippel-Lindau disease tumor suppressor/Polycomb protein EED (Homo sapiens) (UniProt O75530+P40337); experiment: Protac activity at VHL/EED in human 22Rv1 cells assessed as reduction in EED level at 2 uM incubated for 24 hrs by Western blot analysis; assay type: cell-based
T2 sequence (O75530 2-441 limits assumed): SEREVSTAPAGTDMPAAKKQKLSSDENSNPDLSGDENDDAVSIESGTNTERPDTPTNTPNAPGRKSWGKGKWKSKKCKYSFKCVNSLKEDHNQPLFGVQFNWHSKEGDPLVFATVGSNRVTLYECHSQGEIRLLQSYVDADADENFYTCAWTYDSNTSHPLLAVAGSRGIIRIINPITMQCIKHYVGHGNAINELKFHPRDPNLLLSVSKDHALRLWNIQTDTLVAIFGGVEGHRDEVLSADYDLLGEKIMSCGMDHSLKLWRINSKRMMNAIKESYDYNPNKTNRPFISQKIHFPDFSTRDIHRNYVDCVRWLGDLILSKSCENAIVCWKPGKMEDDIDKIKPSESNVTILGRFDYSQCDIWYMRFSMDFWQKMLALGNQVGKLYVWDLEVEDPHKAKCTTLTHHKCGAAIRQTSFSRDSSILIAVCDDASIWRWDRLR
T2 sequence (P40337 whole entry partner): as the sequence (P40337 whole entry, looked up) above

[35] = molecular target: T1, von Hippel-Lindau disease tumor suppressor/Histone-lysine N-methyltransferase EZH2 (Homo sapiens); experiment: Protac activity at VHL/EZH2 in human 22Rv1 cells assessed as reduction in EZH2 level at 2 uM preincubated with VH032 for 2 hrs followed by compound addition and measured after 24 hrs by Western blot analysis; assay type: cell-based; conditions: time 26.0 hrs
[36] = molecular target: T1, von Hippel-Lindau disease tumor suppressor/Histone-lysine N-methyltransferase EZH2 (Homo sapiens); experiment: Protac activity at VHL/EZH2 in human 22Rv1 cells assessed as EZH2 degradation at 2 uM after 2 to 4 hrs by Western blot analysis; assay type: cell-based; conditions: time 2-4 hrs
[37] = molecular target: T1, von Hippel-Lindau disease tumor suppressor/Histone-lysine N-methyltransferase EZH2 (Homo sapiens); experiment: Protac activity at VHL/EZH2 in human 22Rv1 cells assessed as maximum degradation efficacy at 2 uM by Western blot analysis relative to control; assay type: cell-based
[38] = molecular target: T3, von Hippel-Lindau disease tumor suppressor/Polycomb protein SUZ12 (Homo sapiens) (UniProt Q15022+P40337); experiment: Protac activity at VHL/SUZ12 in human SUDHL2 cells assessed as reduction in SUZ12 level at 2 uM incubated for 24 hrs by Western blot analysis; assay type: cell-based
T3 sequence (P40337 whole entry, looked up): as above
T3 sequence (Q15022 whole entry, looked up): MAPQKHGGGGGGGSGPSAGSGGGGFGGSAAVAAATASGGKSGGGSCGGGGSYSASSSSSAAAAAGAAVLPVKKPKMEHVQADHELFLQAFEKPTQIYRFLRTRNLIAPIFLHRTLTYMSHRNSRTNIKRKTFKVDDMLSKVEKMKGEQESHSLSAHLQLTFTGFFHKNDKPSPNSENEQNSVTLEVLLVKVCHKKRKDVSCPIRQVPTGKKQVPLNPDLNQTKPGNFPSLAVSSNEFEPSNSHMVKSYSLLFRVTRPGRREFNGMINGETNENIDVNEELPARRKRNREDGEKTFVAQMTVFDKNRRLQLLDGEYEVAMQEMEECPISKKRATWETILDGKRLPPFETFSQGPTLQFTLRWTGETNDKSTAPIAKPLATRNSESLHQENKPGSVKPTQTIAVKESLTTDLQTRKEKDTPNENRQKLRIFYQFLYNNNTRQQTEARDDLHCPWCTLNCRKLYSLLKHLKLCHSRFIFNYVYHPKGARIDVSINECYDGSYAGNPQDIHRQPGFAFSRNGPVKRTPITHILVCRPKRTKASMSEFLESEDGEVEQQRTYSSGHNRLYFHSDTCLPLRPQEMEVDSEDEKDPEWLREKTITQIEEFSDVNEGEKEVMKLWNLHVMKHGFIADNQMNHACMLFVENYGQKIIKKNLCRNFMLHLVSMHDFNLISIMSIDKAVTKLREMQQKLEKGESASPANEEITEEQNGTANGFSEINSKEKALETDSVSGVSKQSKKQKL

[39] = molecular target: T2, von Hippel-Lindau disease tumor suppressor/Polycomb protein EED (Homo sapiens); experiment: Protac activity at VHL/EED in human SUDHL2 cells assessed as reduction in EED level at 2 uM incubated for 24 hrs by Western blot analysis; assay type: cell-based
[40] = molecular target: T1, von Hippel-Lindau disease tumor suppressor/Histone-lysine N-methyltransferase EZH2 (Homo sapiens); experiment: Protac activity at VHL/EZH2 in VHL knockdown human 22Rv1 cells assessed as reduction in EZH2 level at 2 uM for 24 hrs by Western blot analysis; assay type: cell-based
[41] = molecular target: T3, von Hippel-Lindau disease tumor suppressor/Polycomb protein SUZ12 (Homo sapiens); experiment: Protac activity at VHL/SUZ12 in human 22Rv1 cells assessed as reduction in SUZ12 level at 2 uM incubated for 24 hrs by Western blot analysis; assay type: cell-based
[42] = molecular target: Histone-lysine N-methyltransferase EZH2 (Homo sapiens) (UniProt Q15910); experiment: Induction of EZH2 degradation in human SUDHL2 cells at 0.1 to 5 uM after 24 hrs by Western blot analysis; assay type: cell-based; conditions: dose 0.1-5 µM
Chain of Histone-lysine N-methyltransferase EZH2 (Homo sapiens) (Q15910 whole entry, looked up): as the sequence (Q15910 whole entry, looked up) above

Row | Structure (SMILES) | Activity (SU-DHL-6 [8]) | Activity (SU-DHL-6 [11]) | Activity (SU-DHL-6 [13]) | Activity [14] | Activity (SUD4 [15]) | Activity (SU-DHL-6 [16]) | Activity [17] | Activity [19] | Activity (SU-DHL-6 [20]) | Activity [25] | Activity (SU-DHL-6 [26]) | Activity [28] | Activity (SU-DHL-2 [29]) | Activity [30] | also measured
1 | CCN(c1cc(-c2ccc(CN3CCOCC3)cc2)cc(C(=O)NCc2c(C)cc(C)[nH]c2=O)c1C)C1CCOCC1 [TAZEMETOSTAT] | inactive |  |  |  |  |  |  |  |  |  |  |  |  |  | Activity (SU-DHL-6 [1]): Active; viability at 10 µM (SU-DHL-6 [2]): 25%; Activity (SU-DHL-2 [3]): Active; Activity (SU-DHL-6 [4]): Active; viability at 10 µM (SU-DHL-2 [5]): 25%; viability at 10 µM (SUD4 [6]): 25%; Activity [7]: Non-Toxic; Activity (SU-DHL-6 [9]): inactive
2 | CCN(c1cc(-c2ccc(OCCCOCC(=O)N[C@H](C(=O)N3C[C@H](O)C[C@H]3C(=O)NCc3ccc(-c4scnc4C)cc3)C(C)(C)C)cc2)cc(C(=O)NCc2c(C)cc(C)[nH]c2=O)c1C)C1CCOCC1 | Dose-Dependent Effect | Active | Dose-Dependent Effect | Active | Active | Active | inactive | Dose-Dependent Effect | Dose-Dependent Effect | Active | Active | Dose-Dependent Effect | Active | Active | Activity (DLBCL [10]): Active; Activity (SU-DHL-6 [12]): Active; Activity (SU-DHL-6 [18]): Active; Activity (DLBCL [21]): Active; Activity (SU-DHL-6 [22]): inactive; Activity (SU-DHL-6 [23]): Active; Activity [24]: Non-Toxic; Activity (DLBCL [27]): Dose-Dependent Effect; Activity (SU-DHL-6 [31]): Active; Activity (DLBCL [32]): Active; Activity (SU-DHL-6 [33]): Active
3 | CCN(c1cc(-c2ccc(OCCOCCOCC(=O)N[C@H](C(=O)N3C[C@H](O)C[C@H]3C(=O)NCc3ccc(-c4scnc4C)cc3)C(C)(C)C)cc2)cc(C(=O)NCc2c(C)cc(C)[nH]c2=O)c1C)C1CCOCC1 | Dose-Dependent Effect | Active | Dose-Dependent Effect | Active | Active | Active | inactive | Dose-Dependent Effect | Dose-Dependent Effect | Active | Active | Dose-Dependent Effect | Active | Active | Activity [34]: Active; Activity [35]: inactive; Activity [36]: Active; Emax [37]: 80%; Activity [38]: Active; Activity [39]: Active; Activity [40]: inactive; Activity [41]: Active; Activity [42]: Active
